Values of other authors in US20240148815A1, “FOOD SUPPLEMENT TO PROMOTE BODY WEIGHT LOSS” (NGN HEALTHCARE-NEW GENERATION NUTRACEUTICALS S.R.L., priority 2021, published 2024).
Structures can show the parent of a compound that is named as a salt.

Tests used:
overweight women = settings: 4 weeks, calorie-reduced diet
obese mice = settings: intragastric, 4 weeks
rodents = settings: intragastric preload prior to enteral glucose
[1] = test system: NCI-716 and STC-1 cells (T2R38); settings: by interacting with T2R38
young healthy subjects = settings: oral, encapsulated, 18 mg

N[C@@H](Cc1c[nH]c2ccc(O)cc12)C(=O)O [5-hydroxytryptophan]
BMI (overweight women): decrease
feeling of satiety (overweight women): significantly increased

CC[N+](CC)(CC(=O)Nc1c(C)cccc1C)Cc1ccccc1 [DB, denatonium benzoate]
meal-induced GLP-1 secretion (obese mice): increase
body weight (obese mice; obese mice): reduction
GLP-1 plasma levels (rodents): increase
blood glucose (rodents): reduction
gastric emptying (rodents): slowing
insulin concentration (rodents): increase
PYY secretion (NCI-H716 cells): stimulates

COc1ccc2cc3[n+](cc2c1OC)CCc1cc2c(cc1-3)OCO2 [berberine]
GLP-1 secretion [1]: dose-dependently stimulate

NC(=S)Nc1ccccc1 [phenylthiourea]
GLP-1 secretion [1]: dose-dependently stimulate

C=C[C@H]1C[N@@]2CC[C@H]1C[C@H]2[C@H](O)c1ccnc2ccc(OC)cc12 [quinine HCl]
CCK plasma concentrations (young healthy subjects): increased
energy intake during an ad libitum meal (young healthy subjects): reduced
